Reference: US20120122860A1, “SOLID FORMS OF SULFONAMIDES AND AMINO ACIDS” (Plexxikon, Inc., priority 2009, published 2012)

What was measured:
A-Raf = target: T1, A-Raf (Homo sapiens, UniProt P10398); assay: Kinase activity assay, A-Raf
T1 sequence (P10398 1-606): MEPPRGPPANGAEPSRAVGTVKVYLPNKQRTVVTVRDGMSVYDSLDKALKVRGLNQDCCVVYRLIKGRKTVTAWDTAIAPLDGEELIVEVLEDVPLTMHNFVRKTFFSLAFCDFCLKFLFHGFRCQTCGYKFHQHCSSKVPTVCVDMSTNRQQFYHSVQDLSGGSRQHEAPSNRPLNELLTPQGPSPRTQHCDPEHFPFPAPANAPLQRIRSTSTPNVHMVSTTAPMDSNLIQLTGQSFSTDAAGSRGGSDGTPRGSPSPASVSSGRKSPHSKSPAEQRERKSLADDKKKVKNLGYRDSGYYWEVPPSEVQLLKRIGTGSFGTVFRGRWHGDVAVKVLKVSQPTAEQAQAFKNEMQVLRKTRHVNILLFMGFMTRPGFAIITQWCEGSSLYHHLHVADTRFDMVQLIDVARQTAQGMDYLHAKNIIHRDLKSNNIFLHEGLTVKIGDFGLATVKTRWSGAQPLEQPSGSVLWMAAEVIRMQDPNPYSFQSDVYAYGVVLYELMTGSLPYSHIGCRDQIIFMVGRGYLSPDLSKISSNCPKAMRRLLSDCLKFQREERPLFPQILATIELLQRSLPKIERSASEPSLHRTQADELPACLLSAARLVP

Src = Src (Homo sapiens, UniProt P12931); assay: Kinase activity assay, Src
Kit = Kit (Homo sapiens, UniProt P10721); assay: Kinase activity assay, Kit
C-Raf = C-Raf (Homo sapiens, UniProt P04049); assay: Kinase activity assay, C-Raf
MAP4K4 = MAP4K4 (Homo sapiens, UniProt O95819); assay: Kinase activity assay, MAP4K4
B-Raf V600E = B-Raf V600E (Homo sapiens, UniProt P15056, V600E); assay: Kinase activity assay, B-Raf V600E; format: biochemical; conditions: read-out: activity toward kinase B-Raf V600E, IC50
Kdr = Kdr (Homo sapiens, UniProt P35968); assay: Kinase activity assay, Kdr
B-Raf = B-Raf (Homo sapiens, UniProt P15056); assay: Kinase activity assay, B-Raf; format: biochemical; conditions: read-out: activity toward kinase B-Raf, IC50

Measured: IC50

Sequence of MAP4K4 (O95819 whole entry): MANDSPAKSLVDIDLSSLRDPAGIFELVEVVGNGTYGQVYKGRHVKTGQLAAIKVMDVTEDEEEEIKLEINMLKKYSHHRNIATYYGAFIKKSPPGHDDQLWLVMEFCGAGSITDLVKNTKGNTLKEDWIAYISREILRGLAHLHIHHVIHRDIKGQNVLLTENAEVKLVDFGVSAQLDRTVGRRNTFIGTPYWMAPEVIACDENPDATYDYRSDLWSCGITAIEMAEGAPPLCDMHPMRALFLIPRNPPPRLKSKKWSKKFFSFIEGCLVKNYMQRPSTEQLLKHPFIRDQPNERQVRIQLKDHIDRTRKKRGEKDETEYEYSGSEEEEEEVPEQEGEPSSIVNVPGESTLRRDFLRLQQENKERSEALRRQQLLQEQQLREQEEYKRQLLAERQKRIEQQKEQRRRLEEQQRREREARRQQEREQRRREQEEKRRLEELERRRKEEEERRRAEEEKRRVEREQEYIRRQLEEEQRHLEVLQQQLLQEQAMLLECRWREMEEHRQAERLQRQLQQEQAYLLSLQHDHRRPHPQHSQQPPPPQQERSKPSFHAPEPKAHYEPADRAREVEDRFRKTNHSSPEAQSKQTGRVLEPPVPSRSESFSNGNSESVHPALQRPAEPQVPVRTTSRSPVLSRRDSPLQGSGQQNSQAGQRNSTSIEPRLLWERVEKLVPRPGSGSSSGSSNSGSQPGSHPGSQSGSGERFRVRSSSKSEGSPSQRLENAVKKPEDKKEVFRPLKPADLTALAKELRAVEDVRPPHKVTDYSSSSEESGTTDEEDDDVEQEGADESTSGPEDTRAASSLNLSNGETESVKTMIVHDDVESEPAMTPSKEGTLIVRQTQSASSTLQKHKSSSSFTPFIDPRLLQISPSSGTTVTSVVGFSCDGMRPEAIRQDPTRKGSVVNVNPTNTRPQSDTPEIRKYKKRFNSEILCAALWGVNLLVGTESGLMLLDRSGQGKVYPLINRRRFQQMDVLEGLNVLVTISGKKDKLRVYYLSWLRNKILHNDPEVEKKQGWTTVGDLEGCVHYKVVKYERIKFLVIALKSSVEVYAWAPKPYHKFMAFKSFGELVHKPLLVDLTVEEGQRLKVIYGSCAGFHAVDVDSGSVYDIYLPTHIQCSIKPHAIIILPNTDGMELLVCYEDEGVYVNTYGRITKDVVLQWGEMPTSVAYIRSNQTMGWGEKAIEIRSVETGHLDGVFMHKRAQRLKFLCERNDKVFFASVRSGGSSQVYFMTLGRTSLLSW
Sequence of C-Raf (P04049 whole entry): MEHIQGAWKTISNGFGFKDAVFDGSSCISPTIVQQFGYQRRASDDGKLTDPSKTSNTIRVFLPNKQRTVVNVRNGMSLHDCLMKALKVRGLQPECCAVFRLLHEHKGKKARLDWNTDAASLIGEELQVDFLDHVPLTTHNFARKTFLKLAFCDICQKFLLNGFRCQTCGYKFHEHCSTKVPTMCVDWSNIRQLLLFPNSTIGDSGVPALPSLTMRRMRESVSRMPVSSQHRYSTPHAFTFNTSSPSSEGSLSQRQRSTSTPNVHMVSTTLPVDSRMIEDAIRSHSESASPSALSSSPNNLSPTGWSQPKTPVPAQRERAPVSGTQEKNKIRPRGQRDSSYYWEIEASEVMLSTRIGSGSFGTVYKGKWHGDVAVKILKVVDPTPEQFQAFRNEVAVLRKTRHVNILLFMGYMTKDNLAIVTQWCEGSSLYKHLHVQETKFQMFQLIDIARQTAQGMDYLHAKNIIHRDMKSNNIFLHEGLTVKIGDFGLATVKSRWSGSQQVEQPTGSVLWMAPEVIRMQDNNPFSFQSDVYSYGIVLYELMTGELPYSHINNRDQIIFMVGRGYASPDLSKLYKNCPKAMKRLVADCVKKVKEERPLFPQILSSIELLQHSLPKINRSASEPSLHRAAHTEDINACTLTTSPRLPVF
Sequence of B-Raf (P15056 whole entry): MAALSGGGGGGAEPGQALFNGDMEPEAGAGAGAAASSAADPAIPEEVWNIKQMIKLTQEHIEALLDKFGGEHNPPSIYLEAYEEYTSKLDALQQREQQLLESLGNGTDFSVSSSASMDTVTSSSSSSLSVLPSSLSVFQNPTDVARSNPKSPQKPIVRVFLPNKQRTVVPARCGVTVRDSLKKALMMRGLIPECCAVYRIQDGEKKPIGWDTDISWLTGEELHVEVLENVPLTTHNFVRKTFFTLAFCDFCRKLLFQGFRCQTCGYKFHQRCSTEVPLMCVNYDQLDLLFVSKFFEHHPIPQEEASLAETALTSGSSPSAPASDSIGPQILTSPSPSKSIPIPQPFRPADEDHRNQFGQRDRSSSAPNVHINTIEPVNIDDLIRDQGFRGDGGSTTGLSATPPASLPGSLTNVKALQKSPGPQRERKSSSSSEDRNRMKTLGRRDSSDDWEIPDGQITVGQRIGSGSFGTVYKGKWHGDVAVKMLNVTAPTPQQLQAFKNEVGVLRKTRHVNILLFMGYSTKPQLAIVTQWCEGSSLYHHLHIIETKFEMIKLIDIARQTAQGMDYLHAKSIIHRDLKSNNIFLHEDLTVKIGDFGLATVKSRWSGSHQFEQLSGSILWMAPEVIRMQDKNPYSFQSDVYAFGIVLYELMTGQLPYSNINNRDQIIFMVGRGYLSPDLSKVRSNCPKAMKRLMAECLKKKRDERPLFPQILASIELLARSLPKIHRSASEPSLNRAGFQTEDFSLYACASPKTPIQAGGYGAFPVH
Sequence of Kdr (P35968 20-1356): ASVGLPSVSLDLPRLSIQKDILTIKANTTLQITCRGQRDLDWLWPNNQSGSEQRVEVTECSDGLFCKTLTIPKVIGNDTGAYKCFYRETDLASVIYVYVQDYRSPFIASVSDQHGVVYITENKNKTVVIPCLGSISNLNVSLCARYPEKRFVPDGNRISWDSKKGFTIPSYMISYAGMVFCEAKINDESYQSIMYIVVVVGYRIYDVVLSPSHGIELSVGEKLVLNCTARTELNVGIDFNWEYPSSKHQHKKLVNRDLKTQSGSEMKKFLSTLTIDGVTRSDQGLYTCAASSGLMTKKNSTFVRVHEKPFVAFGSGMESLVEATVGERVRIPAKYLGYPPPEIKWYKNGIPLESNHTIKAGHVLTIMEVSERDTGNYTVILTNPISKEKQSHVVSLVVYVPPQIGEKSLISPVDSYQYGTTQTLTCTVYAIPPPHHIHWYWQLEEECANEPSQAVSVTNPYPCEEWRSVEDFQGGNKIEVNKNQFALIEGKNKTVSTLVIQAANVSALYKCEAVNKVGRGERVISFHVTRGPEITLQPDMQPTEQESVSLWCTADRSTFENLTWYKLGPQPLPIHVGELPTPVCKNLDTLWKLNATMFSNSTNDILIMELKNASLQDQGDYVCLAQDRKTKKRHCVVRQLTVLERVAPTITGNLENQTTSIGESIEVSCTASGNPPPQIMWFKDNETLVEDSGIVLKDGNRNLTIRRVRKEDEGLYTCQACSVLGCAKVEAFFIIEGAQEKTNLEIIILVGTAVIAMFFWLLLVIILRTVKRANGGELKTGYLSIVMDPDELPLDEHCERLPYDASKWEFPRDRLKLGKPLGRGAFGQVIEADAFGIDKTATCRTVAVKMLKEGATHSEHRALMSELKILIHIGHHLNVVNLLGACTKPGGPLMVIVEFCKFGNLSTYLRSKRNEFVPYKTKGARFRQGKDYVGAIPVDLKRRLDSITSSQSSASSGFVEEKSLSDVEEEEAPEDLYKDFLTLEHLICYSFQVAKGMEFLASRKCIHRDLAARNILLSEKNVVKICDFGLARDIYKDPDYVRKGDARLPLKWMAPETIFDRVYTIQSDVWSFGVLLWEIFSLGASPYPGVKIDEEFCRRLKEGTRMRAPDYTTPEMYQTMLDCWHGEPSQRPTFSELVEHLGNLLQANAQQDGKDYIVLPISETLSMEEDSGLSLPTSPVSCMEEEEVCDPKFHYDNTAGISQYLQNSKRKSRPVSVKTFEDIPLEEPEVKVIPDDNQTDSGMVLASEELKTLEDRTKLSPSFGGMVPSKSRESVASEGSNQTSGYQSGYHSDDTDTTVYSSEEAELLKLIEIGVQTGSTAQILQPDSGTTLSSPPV
Sequence of Kit (P10721 26-976): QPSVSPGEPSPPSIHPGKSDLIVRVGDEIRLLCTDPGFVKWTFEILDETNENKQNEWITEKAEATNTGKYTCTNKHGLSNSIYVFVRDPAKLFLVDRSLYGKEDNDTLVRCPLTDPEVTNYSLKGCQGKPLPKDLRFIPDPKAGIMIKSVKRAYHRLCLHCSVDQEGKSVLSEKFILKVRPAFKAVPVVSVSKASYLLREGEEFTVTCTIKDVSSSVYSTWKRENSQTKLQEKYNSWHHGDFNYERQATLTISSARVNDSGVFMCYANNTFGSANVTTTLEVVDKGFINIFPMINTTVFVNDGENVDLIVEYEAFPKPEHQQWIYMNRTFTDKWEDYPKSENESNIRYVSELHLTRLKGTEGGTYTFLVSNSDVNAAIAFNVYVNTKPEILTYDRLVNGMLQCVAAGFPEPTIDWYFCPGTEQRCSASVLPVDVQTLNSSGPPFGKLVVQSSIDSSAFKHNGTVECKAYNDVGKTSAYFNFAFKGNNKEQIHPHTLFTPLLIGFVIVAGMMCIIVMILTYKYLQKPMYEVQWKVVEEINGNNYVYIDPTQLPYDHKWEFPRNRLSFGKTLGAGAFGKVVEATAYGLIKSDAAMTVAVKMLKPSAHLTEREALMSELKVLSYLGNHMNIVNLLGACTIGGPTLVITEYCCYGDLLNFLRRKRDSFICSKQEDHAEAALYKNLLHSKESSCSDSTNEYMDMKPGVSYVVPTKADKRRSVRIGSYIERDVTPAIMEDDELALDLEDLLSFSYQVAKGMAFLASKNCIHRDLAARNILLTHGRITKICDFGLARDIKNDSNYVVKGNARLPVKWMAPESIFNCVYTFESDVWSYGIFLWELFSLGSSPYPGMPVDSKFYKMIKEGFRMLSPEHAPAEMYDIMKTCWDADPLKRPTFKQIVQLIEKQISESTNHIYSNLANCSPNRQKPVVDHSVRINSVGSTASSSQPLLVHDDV
Sequence of B-Raf V600E (P15056 whole entry V600E): as the sequence (P15056 whole entry) above, with V600E counted along it

COc1cnc2[nH]cc(C(=O)c3c(F)ccc(NS(=O)(=O)c4ccccc4F)c3F)c2c1 [P-2009, N-[2,4-Difluoro-3-(5-methoxy-1H-pyrrolo[2,3-b]pyridine-3-carbonyl)-phenyl]-2-fluoro-benzenesulfonamide]
≤ 10 µM: all assays above

N#Cc1cnc2[nH]cc(C(=O)c3c(F)ccc(NS(=O)(=O)c4ccccc4F)c3F)c2c1 [P-2011, N-[3-(5-Cyano-1H-pyrrolo[2,3-b]pyridine-3-carbonyl)-2,4-difluoro-phenyl]-2-fluoro-benzenesulfonamide]
≤ 10 µM: all assays above

Cc1cnc2[nH]cc(C(=O)c3c(F)ccc(NS(=O)(=O)c4ccccc4F)c3F)c2c1 [P-2014, N-[2,4-Difluoro-3-(5-methyl-1H-pyrrolo[2,3-b]pyridine-3-carbonyl)-phenyl]-2-fluoro-benzenesulfonamide]
≤ 10 µM: all assays above

O=C(c1c(F)ccc(NS(=O)(=O)c2ncn[nH]2)c1F)c1c[nH]c2ncc(Cl)cc12 [P-2062, 2H-[1,2,4]Triazole-3-sulfonic acid [3-(5-chloro-1H-pyrrolo[2,3-b]pyridine-3-carbonyl)-2,4-difluoro-phenyl]-amide]
not listed: Kit | B-Raf
≤ 10 µM: all other assays above

N#Cc1cnc2[nH]cc(C(=O)c3c(F)ccc(NS(=O)(=O)c4ccccn4)c3F)c2c1 [P-2063, Pyridine-2-sulfonic acid [3-(5-cyano-1H-pyrrolo[2,3-b]pyridine-3-carbonyl)-2,4-difluoro-phenyl]-amide]
not listed: Kit | Kdr
≤ 10 µM: all other assays above

Cc1cnc2[nH]cc(C(=O)c3c(F)ccc(NS(=O)(=O)c4ncn[nH]4)c3F)c2c1 [P-2065, 2H-[1,2,4]Triazole-3-sulfonic acid [2,4-difluoro-3-(5-methyl-1H-pyrrolo[2,3-b]pyridine-3-carbonyl)-phenyl]-amide]
not listed: Kit | B-Raf
≤ 10 µM: all other assays above

Cc1cnc2[nH]cc(C(=O)c3c(F)ccc(NS(=O)(=O)c4cccnc4)c3F)c2c1 [P-2069, Pyridine-3-sulfonic acid [2,4-difluoro-3-(5-methyl-1H-pyrrolo[2,3-b]pyridine-3-carbonyl)-phenyl]-amide]
not listed: Kit | Kdr
≤ 10 µM: all other assays above

O=C(c1c(F)ccc(NS(=O)(=O)c2ccccn2)c1F)c1c[nH]c2nccc(Cl)c12 [P-2075, Pyridine-2-sulfonic acid [3-(4-chloro-1H-pyrrolo[2,3-b]pyridine-3-carbonyl)-2,4-difluoro-phenyl]-amide]
not listed: Kit
≤ 10 µM: all other assays above

COc1ccnc2[nH]cc(C(=O)c3c(F)ccc(NS(=O)(=O)c4ccccn4)c3F)c12 [P-2076, Pyridine-2-sulfonic acid [2,4-difluoro-3-(4-methoxy-1H-pyrrolo[2,3-b]pyridine-3-carbonyl)-phenyl]-amide]
not listed: Kit | Kdr
≤ 10 µM: all other assays above

CCS(=O)(=O)Nc1ccc(F)c(C(=O)c2c[nH]c3ncc(Cl)cc23)c1F [P-2274, Ethanesulfonic acid [3-(5-chloro-1H-pyrrolo[2,3-b]pyridine-3-carbonyl)-2,4-difluoro-phenyl]-amide]
not listed: Src
≤ 10 µM: all other assays above

CCS(=O)(=O)Nc1ccc(F)c(C(=O)c2c[nH]c3nccc(Cl)c23)c1F [P-2276, Ethanesulfonic acid [3-(4-chloro-1H-pyrrolo[2,3-b]pyridine-3-carbonyl)-2,4-difluoro-phenyl]-amide]
not listed: Kit
≤ 10 µM: all other assays above

CCS(=O)(=O)Nc1ccc(F)c(C(=O)c2c[nH]c3ncc(C)cc23)c1F [P-2277, Ethanesulfonic acid [2,4-difluoro-3-(5-methyl-1H-pyrrolo[2,3-b]pyridine-3-carbonyl)-phenyl]-amide]
not listed: Kit
≤ 10 µM: all other assays above

CCCC(C)S(=O)(=O)Nc1ccc(F)c(C(=O)c2c[nH]c3ncc(C)cc23)c1F (stereo not shown) [P-2315, Pentane-2-sulfonic acid [2,4-difluoro-3-(5-methyl-1H-pyrrolo[2,3-b]pyridine-3-carbonyl)-phenyl]-amide]
not listed: C-Raf | B-Raf
≤ 10 µM: all other assays above

Cc1cnc2[nH]cc(C(=O)c3c(F)ccc(NS(=O)(=O)CC(F)(F)F)c3F)c2c1 [P-2337, 2,2,2-Trifluoro-ethanesulfonic acid [2,4-difluoro-3-(5-methyl-1H-pyrrolo[2,3-b]pyridine-3-carbonyl)-phenyl]-amide]
not listed: Kit | B-Raf
≤ 10 µM: all other assays above

O=C(c1c(F)ccc(NS(=O)(=O)C(F)(F)F)c1F)c1c[nH]c2ncc(Cl)cc12 [P-2346, N-[3-(5-Chloro-1H-pyrrolo[2,3-b]pyridine-3-carbonyl)-2,4-difluoro-phenyl]-C,C,C-trifluoro-methanesulfonamide]
not listed: Kit
≤ 10 µM: all other assays above

O=C(c1c(F)ccc(NS(=O)(=O)C2CCCCC2)c1F)c1c[nH]c2nccc(Cl)c12 [P-2367, Cyclohexanesulfonic acid [3-(4-chloro-1H-pyrrolo[2,3-b]pyridine-3-carbonyl)-2,4-difluoro-phenyl]-amide]
not listed: Kdr
≤ 10 µM: all other assays above

CCCS(=O)(=O)Nc1cccc(C(=O)c2c[nH]c3ncc(-c4cnc(N(C)C)nc4)cc23)c1F [P-2408, Propane-1-sulfonic acid {3-[5-(2-dimethylamino-pyrimidin-5-yl)-1H-pyrrolo[2,3-b]pyridine-3-carbonyl]-2-fluoro-phenyl}-amide]
not listed: Kit
≤ 10 µM: all other assays above
